Source: patent publication US20090163481A1, “PPAR-DELTA LIGANDS AND METHODS OF THEIR USE” (priority 2007, published 2009)

Legend:
[1] = system: A549 cells; test: Western blotting of cell-cycle regulatory proteins in A549 cells; format: cell-based, human; settings: A549, 20 μM, 24 and 48 h, 0.5% FBS
Method: Referring now to FIG. 5C, SR13904 treatment of A549 human NSCLC cell line modulates cell cycle protein expression patterns toward an inhibitory phenotype. Given the flow cytometry results described above, the effect of SR13904 on the expression of some key cell-cycle regulatory proteins involved in G1 and S phases was investigated. A549 cells were grown in phenol-red-free DMEM+0.5% charcoal-treated FBS and exposed to the ligand. […]

[2] = molecular target: T1, PPARδ (Homo sapiens, UniProt Q03181); test: PPRE promoter/luciferase reporter (transactivation) assay in U2-OS cells; format: cell-based
T1 construct: expressed in transfected cells; host or cells: U2-OS (human bone cancer line)
T1 sequence (Q03181 1-441): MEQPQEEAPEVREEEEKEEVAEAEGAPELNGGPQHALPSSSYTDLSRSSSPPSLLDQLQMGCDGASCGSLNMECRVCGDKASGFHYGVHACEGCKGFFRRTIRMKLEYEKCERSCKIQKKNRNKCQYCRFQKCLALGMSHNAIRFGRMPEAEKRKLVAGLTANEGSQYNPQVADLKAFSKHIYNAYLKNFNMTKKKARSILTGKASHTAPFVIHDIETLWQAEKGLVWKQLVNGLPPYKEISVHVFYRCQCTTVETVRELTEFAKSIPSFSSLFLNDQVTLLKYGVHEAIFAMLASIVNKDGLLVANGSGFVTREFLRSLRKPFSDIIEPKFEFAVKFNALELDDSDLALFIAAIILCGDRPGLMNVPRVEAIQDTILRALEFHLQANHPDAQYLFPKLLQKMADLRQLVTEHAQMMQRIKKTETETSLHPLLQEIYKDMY
Method: General Testing Procedures. Each ligand was screened for PPARδ binding and transactivation activity through the use of two complementary reporter assays as described below. In both systems, transfection efficiency was standardized by co-transfection of a control Renilla luciferase. U2-OS (human bone cancer line) cells were used for both assays because this is the cell line of choice for screening PPAR ligands. At 18 h post-transfection, GW 501, with and without the ligands of the disclosure, was added to the cells and incubated for an additional 24 h. The cells were then harvested and luciferase activities profiled.
A promoter/luciferase reporter assay. This assay involves co-transfection of a PPARδ expression vector and a plasmid containing a luciferase gene under the control of PPARδ responsive DNA element (three copies of a consensus PPAR response element, PPRE). This assay was used to directly test ligand effects on PPARδ-responsive genes.
Referring to FIG. 3, U2-OS cells were transiently transfected with appropriate expression and reporter vectors. Ligands were added to the cell cultures 24 h post-transfection and incubated for an additional 16 h. Lipoprotein lipase (LPL; 2 μg/ml) was added with VLDL (5 μg/ml) to release PPARδ-active triglycerides. FIG. 3A: PPARδ LBD/Gal4/UAS-tk-luc competition assays with VLDL SR13904 (0-10 μM). The reporter activation (fold increase over blank) is presented relative to GW501516 at 7 nM (fold increase over blank=100). FIG. 3B: PPRE reporter assays using 0, 1, and 10 μM SR13904+VLDL. All assays were repeated in triplicate.

[3] = system: PC-3 cells; test: Western analysis of cyclin D1 and CDK2 in post-confluent PC-3 cells; format: cell-based, human; settings: post-confluent PC-3, 48 h, SR 13904 10 μM, vehicle- and VLDL-treated cells
Method: Referring to FIG. 4, PC-3 cells were brought to confluence and cultured in serum-free OptiMem culture medium (Gibco) 2 h before treatment with a combination of VLDL (2 μg/ml+2 μg/ml LPL) and/or SR 13904 (10 μM) and incubated for an additional 48 h. Standard Western blotting was performed. Glyceraldehyde 3 phosphate dehydrogenase (GAPDH) was used a control for both blots.

[4] = system: Akt1; test: Western analysis of phosphorylated Akt1 in growth factor-deprived PC-3 cultures; format: cell-based, human; settings: PC-3, 48 h growth factor withdrawal; VLDL 2 μg/ml + LPL 2 μg/ml and/or 10 μM SR13904
Method: The ability of SR 13904 to regulate the cell survival Akt1 signaling pathway was assessed. PC-3 cultures were exposed to apoptosis-inducing growth factor deprivation and harvested for Western analysis of phosphorylated Akt1 and total PTEN protein. PTEN is known to inhibit the Akt1 pathway at the level of PI3-kinase. […] Subsequent studies confirmed this conclusion.
Referring to FIG. 8, PC-3 cells were exposed to 48 h of growth factor withdrawal with and without VLDL SR 13904 (2 μg/ml VLDL+2 μg/ml LPL and/or 10 μM SR13904). Standard western analysis for phospho-serine 473, phospho-tyrosine 308, and PTEN were performed. GAPDH was used as a control.

inhibition of PPARδ-mediated transactivation [2]: appear to inhibit
reporter expression via PPRE in combination with GW 501 ([2]; 1 μM ligand): significantly decreased
reporter expression via PPRE in combination with GW 501 ([2]; 10 μM ligand): completely inhibited
transcription activation of the PPRE reporter to GW501 ([2]; 1 and 10 μM ligand with GW501): completely eliminated
VLDL-related activation of the PPAR promoter element (PPRE) construct ([2]; co-treatment with 1 μM): completely block
SMILES: Cc1cc(SCc2sc(-c3cccc4ccccc34)nc2C)ccc1OCC(=O)O [SR 13904]
levels of cyclin E, p21, and p27 [1]: little or no effect
steady state levels of CDK2, CDK4, cyclin D1, and cyclin A proteins [1]: decreased
CDK2 protein levels ([3]; VLDL 2 μg/ml + LPL 2 μg/ml): decreased
cyclin D1 protein levels [3]: decreased
phosphorylation of serine 473 and tyrosine 308 on the Akt1 protein [4]: completely abolished
